Assay results reported in PubChem BioAssay (NCI).
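In this assay, cells in 96-well plates receive the compound at five concentrations for 48 hours. Endpoints are linearly interpolated between the surrounding concentrations. TGI denotes the concentration required for complete inhibition of growth.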

Key:
Test in all cases: NCI anticancer screen, dose series, 48 h
MDA-N = test system: MDA-N
HT29 colon = test system: HT29 colon
A498 renal = test system: A498 renal
MOLT-4 leukemia = test system: MOLT-4 leukemia
CCRF-CEM leukemia = test system: CCRF-CEM leukemia
HL-60(TB) leukemia = test system: HL-60(TB) leukemia
HCT-15 colon = test system: HCT-15 colon
K-562 leukemia = test system: K-562 leukemia
OVCAR-4 ovarian = test system: OVCAR-4 ovarian
OVCAR-5 ovarian = test system: OVCAR-5 ovarian
CAKI-1 renal = test system: CAKI-1 renal
MALME-3M melanoma = test system: MALME-3M melanoma
HOP-92 NSCLC = test system: HOP-92 NSCLC
HCC-2998 colon = test system: HCC-2998 colon
SNB-19 CNS = test system: SNB-19 CNS
SN12C renal = test system: SN12C renal
NCI/ADR-RES ovarian = test system: NCI/ADR-RES ovarian
NCI-H460 lung = test system: NCI-H460 lung
MDA-MB-231 breast = test system: MDA-MB-231 breast
SNB-75 CNS = test system: SNB-75 CNS
M14 melanoma = test system: M14 melanoma
SF-295 CNS = test system: SF-295 CNS
IGROV1 ovarian = test system: IGROV1 ovarian
RPMI-8226 leukemia = test system: RPMI-8226 leukemia
COLO 205 colon = test system: COLO 205 colon
HS 578T breast = test system: HS 578T breast
TK-10 renal = test system: TK-10 renal
NCI-H23 lung = test system: NCI-H23 lung
MDA-MB-435 = test system: MDA-MB-435
ACHN renal = test system: ACHN renal
BT-549 breast = test system: BT-549 breast
SK-OV-3 ovarian = test system: SK-OV-3 ovarian
KM12 colon = test system: KM12 colon
UO-31 renal = test system: UO-31 renal
EKVX NSCLC = test system: EKVX NSCLC
T-47D breast = test system: T-47D breast
SF-268 CNS = test system: SF-268 CNS
A549 NSCLC = test system: A549 NSCLC
OVCAR-8 ovarian = test system: OVCAR-8 ovarian
UACC-62 melanoma = test system: UACC-62 melanoma
SW-620 colon = test system: SW-620 colon
SK-MEL-5 melanoma = test system: SK-MEL-5 melanoma
UACC-257 melanoma = test system: UACC-257 melanoma
PC-3 prostate = test system: PC-3 prostate
HOP-62 NSCLC = test system: HOP-62 NSCLC
786-0 renal = test system: 786-0 renal
HCT-116 colon = test system: HCT-116 colon
MCF7 breast = test system: MCF7 breast
SF-539 CNS = test system: SF-539 CNS
SK-MEL-28 melanoma = test system: SK-MEL-28 melanoma
LOX IMVI melanoma = test system: LOX IMVI melanoma
OVCAR-3 ovarian = test system: OVCAR-3 ovarian
SK-MEL-2 melanoma = test system: SK-MEL-2 melanoma
RXF 393 renal = test system: RXF 393 renal
NCI-H226 lung = test system: NCI-H226 lung
DU-145 prostate = test system: DU-145 prostate
SR leukemia = test system: SR leukemia
U251 CNS = test system: U251 CNS
NCI-H522 lung = test system: NCI-H522 lung

Compound: NCCCN(CCCCN(CCCN)Cc1ccc2ccccc2c1)Cc1ccc2ccccc2c1
- TGI (MDA-N): 3.3 µM
- TGI (HT29 colon): 3.11 µM
- TGI (A498 renal): 5.06 µM
- TGI (MOLT-4 leukemia): 4.74 µM
- TGI (CCRF-CEM leukemia): > 100 µM
- TGI (HL-60(TB) leukemia): > 100 µM
- TGI (HCT-15 colon): 13.1 µM
- TGI (K-562 leukemia): > 100 µM
- TGI (OVCAR-4 ovarian): 4.09 µM
- TGI (OVCAR-5 ovarian): 3.44 µM
- TGI (CAKI-1 renal): 3.15 µM
- TGI (MALME-3M melanoma): 3.39 µM
- TGI (HOP-92 NSCLC): 5.75 µM
- TGI (HCC-2998 colon): 9.37 µM
- TGI (SNB-19 CNS): 2.86 µM
- TGI (SN12C renal): 3.08 µM
- TGI (NCI/ADR-RES ovarian): 54.3 µM
- TGI (NCI-H460 lung): 3.43 µM
- TGI (MDA-MB-231 breast): 11.8 µM
- TGI (SNB-75 CNS): 3.89 µM
- TGI (M14 melanoma): 3.63 µM
- TGI (SF-295 CNS): 3.7 µM
- TGI (IGROV1 ovarian): 3.3 µM
- TGI (RPMI-8226 leukemia): 6.88 µM
- TGI (COLO 205 colon): 5.22 µM
- TGI (HS 578T breast): 3.06 µM
- TGI (TK-10 renal): 5.05 µM
- TGI (NCI-H23 lung): 3.34 µM
- TGI (MDA-MB-435): 4.27 µM
- TGI (ACHN renal): 3.3 µM
- TGI (BT-549 breast): 3.89 µM
- TGI (SK-OV-3 ovarian): 3.39 µM
- TGI (KM12 colon): 3.32 µM
- TGI (UO-31 renal): 6.1 µM
- TGI (EKVX NSCLC): 3.37 µM
- TGI (T-47D breast): 5.03 µM
- TGI (SF-268 CNS): 2.57 µM
- TGI (A549 NSCLC): 3.2 µM

Compound: O=C(Cn1c2c(c3ccccc31)CCCC2)NC1CCCCC1
- TGI (OVCAR-8 ovarian): > 100 µM
- TGI (MDA-N): > 100 µM
- TGI (HT29 colon): > 100 µM
- TGI (A498 renal): > 100 µM
- TGI (UACC-62 melanoma): > 100 µM
- TGI (CCRF-CEM leukemia): > 100 µM
- TGI (HL-60(TB) leukemia): > 100 µM
- TGI (HCT-15 colon): > 100 µM
- TGI (K-562 leukemia): > 100 µM
- TGI (SW-620 colon): > 100 µM
- TGI (OVCAR-4 ovarian): > 100 µM
- TGI (OVCAR-5 ovarian): > 100 µM
- TGI (CAKI-1 renal): > 100 µM
- TGI (SK-MEL-5 melanoma): > 100 µM
- TGI (UACC-257 melanoma): > 100 µM
- TGI (MALME-3M melanoma): > 100 µM
- TGI (HCC-2998 colon): > 100 µM
- TGI (SNB-19 CNS): > 100 µM
- TGI (SN12C renal): > 100 µM
- TGI (NCI/ADR-RES ovarian): > 100 µM
- TGI (NCI-H460 lung): > 100 µM
- TGI (PC-3 prostate): > 100 µM
- TGI (M14 melanoma): > 100 µM
- TGI (SF-295 CNS): > 100 µM
- TGI (IGROV1 ovarian): > 100 µM
- TGI (RPMI-8226 leukemia): > 100 µM
- TGI (HOP-62 NSCLC): > 100 µM
- TGI (COLO 205 colon): > 100 µM
- TGI (786-0 renal): > 100 µM
- TGI (HS 578T breast): > 100 µM
- TGI (TK-10 renal): > 100 µM
- TGI (NCI-H23 lung): > 100 µM
- TGI (HCT-116 colon): > 100 µM
- TGI (MDA-MB-435): > 100 µM
- TGI (ACHN renal): > 100 µM
- TGI (BT-549 breast): > 100 µM
- TGI (SK-OV-3 ovarian): > 100 µM
- TGI (MCF7 breast): > 100 µM
- TGI (SF-539 CNS): > 100 µM
- TGI (SK-MEL-28 melanoma): > 100 µM
- TGI (UO-31 renal): > 100 µM
- TGI (LOX IMVI melanoma): > 100 µM
- TGI (EKVX NSCLC): > 100 µM
- TGI (OVCAR-3 ovarian): > 100 µM
- TGI (SF-268 CNS): > 100 µM
- TGI (SK-MEL-2 melanoma): > 100 µM
- TGI (A549 NSCLC): > 100 µM

Compound: CCCC(=O)NC1=C(NCC)C(=O)c2ccccc2C1=O
- TGI (MDA-N): 63.2 µM
- TGI (HT29 colon): > 100 µM
- TGI (UACC-62 melanoma): > 100 µM
- TGI (RXF 393 renal): > 100 µM
- TGI (MOLT-4 leukemia): > 100 µM
- TGI (CCRF-CEM leukemia): > 100 µM
- TGI (HL-60(TB) leukemia): > 100 µM
- TGI (HCT-15 colon): > 100 µM
- TGI (K-562 leukemia): > 100 µM
- TGI (SW-620 colon): > 100 µM
- TGI (OVCAR-4 ovarian): > 100 µM
- TGI (OVCAR-5 ovarian): > 100 µM
- TGI (SK-MEL-5 melanoma): > 100 µM
- TGI (NCI-H226 lung): > 100 µM
- TGI (UACC-257 melanoma): > 100 µM
- TGI (MALME-3M melanoma): > 100 µM
- TGI (HOP-92 NSCLC): > 100 µM
- TGI (HCC-2998 colon): > 100 µM
- TGI (SNB-19 CNS): > 100 µM
- TGI (SN12C renal): > 100 µM
- TGI (NCI-H460 lung): > 100 µM
- TGI (DU-145 prostate): > 100 µM
- TGI (MDA-MB-231 breast): > 100 µM
- TGI (SNB-75 CNS): > 100 µM
- TGI (PC-3 prostate): > 100 µM
- TGI (SF-295 CNS): > 100 µM
- TGI (IGROV1 ovarian): > 100 µM
- TGI (RPMI-8226 leukemia): > 100 µM
- TGI (HOP-62 NSCLC): > 100 µM
- TGI (COLO 205 colon): > 100 µM
- TGI (786-0 renal): > 100 µM
- TGI (SR leukemia): > 100 µM
- TGI (HS 578T breast): > 100 µM
- TGI (TK-10 renal): > 100 µM
- TGI (NCI-H23 lung): > 100 µM
- TGI (HCT-116 colon): > 100 µM
- TGI (MDA-MB-435): 78.1 µM
- TGI (ACHN renal): > 100 µM
- TGI (BT-549 breast): > 100 µM
- TGI (SK-OV-3 ovarian): > 100 µM
- TGI (MCF7 breast): > 100 µM
- TGI (U251 CNS): > 100 µM
- TGI (SF-539 CNS): > 100 µM
- TGI (SK-MEL-28 melanoma): > 100 µM
- TGI (KM12 colon): > 100 µM
- TGI (OVCAR-3 ovarian): > 100 µM
- TGI (T-47D breast): > 100 µM
- TGI (SF-268 CNS): > 100 µM
- TGI (A549 NSCLC): > 100 µM
- TGI (NCI-H522 lung): > 100 µM

Compound: CCOC(=O)/C(Cl)=C(\C)Nc1nc2c(ccc3ccccc32)s1
- TGI (OVCAR-8 ovarian): > 100 µM
- TGI (MDA-N): > 100 µM
- TGI (HT29 colon): > 100 µM
- TGI (A498 renal): > 100 µM
- TGI (UACC-62 melanoma): > 100 µM
- TGI (MOLT-4 leukemia): > 100 µM
- TGI (CCRF-CEM leukemia): > 100 µM
- TGI (HL-60(TB) leukemia): > 100 µM
- TGI (HCT-15 colon): > 100 µM
- TGI (K-562 leukemia): > 100 µM
- TGI (SW-620 colon): > 100 µM
- TGI (OVCAR-4 ovarian): > 100 µM
- TGI (OVCAR-5 ovarian): > 100 µM
- TGI (CAKI-1 renal): > 100 µM
- TGI (SK-MEL-5 melanoma): > 100 µM
- TGI (NCI-H226 lung): > 100 µM
- TGI (UACC-257 melanoma): > 100 µM
- TGI (MALME-3M melanoma): > 100 µM
- TGI (HCC-2998 colon): 39.2 µM
- TGI (SNB-19 CNS): > 100 µM
- TGI (SN12C renal): > 100 µM
- TGI (NCI/ADR-RES ovarian): > 100 µM
- TGI (NCI-H460 lung): 69.3 µM
- TGI (DU-145 prostate): 46.6 µM
- TGI (MDA-MB-231 breast): > 100 µM
- TGI (SNB-75 CNS): > 100 µM
- TGI (PC-3 prostate): > 100 µM
- TGI (M14 melanoma): > 100 µM
- TGI (SF-295 CNS): > 100 µM
- TGI (IGROV1 ovarian): > 100 µM
- TGI (HOP-62 NSCLC): > 100 µM
- TGI (COLO 205 colon): > 100 µM
- TGI (SR leukemia): 77.1 µM
- TGI (HS 578T breast): > 100 µM
- TGI (TK-10 renal): > 100 µM
- TGI (NCI-H23 lung): > 100 µM
- TGI (HCT-116 colon): > 100 µM
- TGI (ACHN renal): > 100 µM
- TGI (BT-549 breast): > 100 µM
- TGI (SK-OV-3 ovarian): > 100 µM
- TGI (MCF7 breast): > 100 µM
- TGI (U251 CNS): > 100 µM
- TGI (SK-MEL-28 melanoma): > 100 µM
- TGI (KM12 colon): > 100 µM
- TGI (UO-31 renal): > 100 µM
- TGI (EKVX NSCLC): > 100 µM
- TGI (OVCAR-3 ovarian): > 100 µM
- TGI (T-47D breast): 43.6 µM
- TGI (SF-268 CNS): > 100 µM
- TGI (SK-MEL-2 melanoma): 60.1 µM
- TGI (NCI-H522 lung): 70.9 µM
